Where two headings read alike, the source gives them in different places.
Assay: Biodistribution of 99mTc complexes in rats
Format: in vivo, Australian Albino Wistar Rats
Conditions: rat, rats; for tissue uptake at 0.5 min: 30 sec; for tissue uptake at 0.05 h: 3 min
Method: A typical method of radiolabelling of the chelator was achieved by dissolving the chelator in a basic solution of saline. The pH was then adjusted to approx. 6 with HCl. Excess stannous chloride was added to the resultant solution followed by one equivalent volume of sodium ^99m TcO4 (10-50 mCi/ml). Final concentration of the chelator was approx. 1 mg/ml. The efficacy of labelling was determined by ITLC-SG. For each product only one main radiochemical species was observed. Each complex was diluted to 15 μCi/100 μl with saline. […] (See FIGS. 1A and 1B).
Selected data from biodistribution results of technetium-99m complexes of No. 1, No. 2 and No 4 in the liver, kidney and blood at 3 minutes is tabulated below.

[1] = blood, read-out: biodistribution blood
[2] = bone, read-out: biodistribution bone
[3] = brain, read-out: biodistribution brain
[4] = eyes, read-out: biodistribution eyes
[5] = heart, read-out: biodistribution heart
[6] = kidneys, read-out: biodistribution kidneys
[7] = liver, read-out: biodistribution liver
[8] = lungs, read-out: biodistribution lungs
[9] = muscle, read-out: biodistribution muscle
[10] = pancreas, read-out: biodistribution pancreas
[11] = skin, read-out: biodistribution skin
[12] = spleen, read-out: biodistribution spleen
[13] = tail, read-out: biodistribution tail
[14] = thymus, read-out: biodistribution thymus
[15] = thyroid, read-out: biodistribution thyroid

O=C(O)CN(CCN(CC(=O)O)CC(=O)Nc1cc([N+](=O)[O-])ccc1O)CC(=O)Nc1cc([N+](=O)[O-])ccc1O [Compound 3]
tissue uptake at 0.5 min [1]: 2.1 %ID/g | tissue uptake at 1 min [1]: 1.83 %ID/g | tissue uptake at 0.05 h [1]: 1.37 %ID/g | tissue uptake at 5 min [1]: 1.17 %ID/g | tissue uptake at 10 min [1]: 0.86 %ID/g | tissue uptake at 0.5 min [2]: 0.3 %ID/g | tissue uptake at 1 min [2]: 0.29 %ID/g | tissue uptake at 0.05 h [2]: 0.3 %ID/g | tissue uptake at 5 min [2]: 0.29 %ID/g | tissue uptake at 10 min [2]: 0.22 %ID/g | tissue uptake at 0.5 min [3]: 0.18 %ID/g | tissue uptake at 1 min [3]: 0.14 %ID/g | tissue uptake at 0.05 h [3]: 0.09 %ID/g | tissue uptake at 5 min [3]: 0.08 %ID/g | tissue uptake at 10 min [3]: 0.05 %ID/g | tissue uptake at 0.5 min [4]: 0.2 %ID/g | tissue uptake at 1 min [4]: 0.23 %ID/g | tissue uptake at 0.05 h [4]: 0.23 %ID/g | tissue uptake at 5 min [4]: 0.17 %ID/g | tissue uptake at 10 min [4]: 0.18 %ID/g | tissue uptake at 0.5 min [5]: 0.78 %ID/g | tissue uptake at 1 min [5]: 0.65 %ID/g | tissue uptake at 0.05 h [5]: 0.55 %ID/g | tissue uptake at 5 min [5]: 0.45 %ID/g | tissue uptake at 10 min [5]: 0.34 %ID/g | tissue uptake at 0.5 min [6]: 3.92 %ID/g | tissue uptake at 1 min [6]: 4.63 %ID/g | tissue uptake at 0.05 h [6]: 4.27 %ID/g | tissue uptake at 5 min [6]: 3 %ID/g | tissue uptake at 10 min [6]: 2.1 %ID/g | tissue uptake at 0.5 min [7]: 1.43 %ID/g | tissue uptake at 1 min [7]: 1.61 %ID/g | tissue uptake at 0.05 h [7]: 1.61 %ID/g | tissue uptake at 5 min [7]: 1.24 %ID/g | tissue uptake at 10 min [7]: 0.92 %ID/g | tissue uptake at 0.5 min [8]: 1.24 %ID/g | tissue uptake at 1 min [8]: 1.04 %ID/g | tissue uptake at 0.05 h [8]: 0.87 %ID/g | tissue uptake at 5 min [8]: 0.72 %ID/g | tissue uptake at 10 min [8]: 0.57 %ID/g | tissue uptake at 0.5 min [9]: 0.26 %ID/g | tissue uptake at 1 min [9]: 0.24 %ID/g | tissue uptake at 0.05 h [9]: 0.23 %ID/g | tissue uptake at 5 min [9]: 0.21 %ID/g | tissue uptake at 10 min [9]: 0.22 %ID/g | tissue uptake at 0.5 min [10]: 0.47 %ID/g | tissue uptake at 1 min [10]: 0.41 %ID/g | tissue uptake at 0.05 h [10]: 0.38 %ID/g | tissue uptake at 5 min [10]: 0.42 %ID/g | tissue uptake at 10 min [10]: 0.21 %ID/g | tissue uptake at 0.5 min [11]: 0.49 %ID/g | tissue uptake at 1 min [11]: 0.43 %ID/g | tissue uptake at 0.05 h [11]: 0.58 %ID/g | tissue uptake at 5 min [11]: 0.64 %ID/g | tissue uptake at 10 min [11]: 0.63 %ID/g | tissue uptake at 0.5 min [12]: 0.49 %ID/g | tissue uptake at 1 min [12]: 0.42 %ID/g | tissue uptake at 0.05 h [12]: 0.29 %ID/g | tissue uptake at 5 min [12]: 0.23 %ID/g | tissue uptake at 10 min [12]: 0.17 %ID/g | tissue uptake at 0.5 min [13]: 0.85 %ID/g | tissue uptake at 1 min [13]: 2.43 %ID/g | tissue uptake at 0.05 h [13]: 0.63 %ID/g | tissue uptake at 5 min [13]: 0.84 %ID/g | tissue uptake at 10 min [13]: 0.84 %ID/g | tissue uptake at 0.5 min [14]: 0.38 %ID/g | tissue uptake at 1 min [14]: 0.34 %ID/g | tissue uptake at 0.05 h [14]: 0.32 %ID/g | tissue uptake at 5 min [14]: 0.25 %ID/g | tissue uptake at 10 min [14]: 0.2 %ID/g | tissue uptake at 0.5 min [15]: 1.11 %ID/g | tissue uptake at 1 min [15]: 1.14 %ID/g | tissue uptake at 0.05 h [15]: 0.92 %ID/g | tissue uptake at 5 min [15]: 0.7 %ID/g | tissue uptake at 10 min [15]: 0.63 %ID/g

Source: patent publication US5807535A, “Metal complexes of hydroxyaryl containing aminocarboxylic acid chelating agents” (Australian Nuclear Science & Technology Organisation, priority 1992, dated 1998)
